Data from patent US20200385371A1 (Propellon Therapeutics Inc., priority 2017, published 2020).
Each block holds one compound with its values, some of them ahead of it.

What was measured:
WDR5 [1] = target: T1, WDR5 (Homo sapiens, UniProt P61964); assay: Surface Plasmon Resonance (SPR) assay; assay type: binding; set-up: Full length WDR5 with an N-terminal His tag and C-terminal AviTag; His tag (N); made in house; host or cells: E. coli; details: read-out: SPR Kd
Procedure, shortened: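 Full-length biotinylated WDR5 (N-His, C-AviTag, E. coli) captured (~3000 RU) on streptavidin SA chip; Biacore T200. HBS-EP pH 7.4 plus 5% DMSO running buffer, 40 μl/min.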

WDR5 [2] = target: T1, WDR5; assay: Fluorescence Polarization (FP) binding assay
Procedure, shortened: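 Buffer was pH 6.5 sodium phosphate (80 mM) with 20 mM KCl and 0.008% Triton X-100; 9-Ala-FAM probe at 20 nM used 0.05 μM WDR5 and 480/540 nm polarization, H3 (1-15) probe at 30 nM used 0.3 μM WDR5 and 485/528 nm. Quadruplicate data were hyperbola-fitted to give Kdisp.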

MV4-11 cells = assay: Cell proliferation assay (ATPlite); assay type: cell-based; details: Homo sapiens, 120 h; MV4-11 cells, five days; read-out: GI MV411 EC50
Procedure, shortened: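 ATPlite luminescence after five days' culture (37° C, 5% CO2) gives viability. Compounds dosed in 10 concentrations up to 10 μM against DMSO; 1,000 cells/well seeded in Alpha-MEM/10% FBS.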

Compound: C[C@H]1CN(c2cc(F)c(-c3ccc4c(c3)OCO4)c(F)c2NC(=O)c2c[nH]c(=O)cc2C(F)(F)F)CCN1C [Example 184, (S)—N-(3-(benzo[d][1,3]dioxol-5-yl)-6-(3,4-dimethylpiperazin-1-yl)-2,4-difluorophenyl)-6-oxo-4-(trifluoromethyl)-1,6-dihydropyridine-3-carboxamide]
Kd (WDR5 [1]): 1.17 nM
IC50 (WDR5 [2]): 25.5 nM
EC50 (MV4-11 cells): 90.3 nM

Compound: C[C@@H]1CN(c2ccc(-c3c(F)cc(N4CCN(C)[C@@H](C)C4)c(NC(=O)c4ccc(F)cc4C(F)(F)F)c3F)cn2)CCO1 [Example 172, N-(6-((S)-3,4-dimethylpiperazin-1-yl)-2,4-difluoro-3-(6-((R)-2-methylmorpholino)pyridin-3-yl)phenyl)-4-fluoro-2-(trifluoromethyl)benzamide]
Kd (WDR5 [1]): 1.02 nM
IC50 (WDR5 [2]): 18.9 nM
EC50 (MV4-11 cells): 124 nM

Compound: C[C@@H]1CN(c2cc(F)c(-c3cnc(N4CCOCC4)nc3)c(F)c2NC(=O)c2c[nH]c(=O)cc2C(F)F)C[C@H](C)N1C [Example 41, N-(2,4-difluoro-3-(2-morpholinopyrimidin-5-yl)-6-((3S,5R)-3,4,5-trimethylpiperazin-1-yl)phenyl)-4-(difluoromethyl)-6-oxo-1,6-dihydropyridine-3-carboxamide]
Kd (WDR5 [1]): 0.84 nM
IC50 (WDR5 [2]): 7.1 nM
EC50 (MV4-11 cells): 48.8 nM

Compound: C[C@@H]1CN(c2ncc(-c3c(F)cc(N4CCN(C)[C@@H](C)C4)c(NC(=O)c4cn(C)c(=O)cc4C(F)F)c3F)cn2)C[C@@H](C)O1 [Example 162, 4-(Difluoromethyl)-N-(3-(2-((2R,6R)-2,6-dimethylmorpholino)pyrimidin-5-yl)-6-((S)-3,4-dimethylpiperazin-1-yl)-2,4-difluorophenyl)-1-methyl-6-oxo-1,6-dihydropyridine-3-carboxamide]
Kd (WDR5 [1]): 1.25 nM
IC50 (WDR5 [2]): 14.1 nM
EC50 (MV4-11 cells): 210 nM

Compound: C[C@H]1CN(c2ncc(-c3c(F)cc(N4CCN(C)[C@@H](C)C4)c(NC(=O)c4ccc(F)cc4C(F)F)c3F)cn2)C[C@H](C)O1 [Example 157, 2-(Difluoromethyl)-N-(3-(2-((2S,6S)-2,6-dimethylmorpholino)pyrimidin-5-yl)-6-((S)-3,4-dimethylpiperazin-1-yl)-2,4-difluorophenyl)-4-fluorobenzamide]
Kd (WDR5 [1]): 0.22 nM
IC50 (WDR5 [2]): 16.1 nM
EC50 (MV4-11 cells): 65.6 nM

Compound: C[C@@H]1CN(c2cc(F)c(-c3cnc(N4CCC(F)(F)CC4)nc3)c(F)c2NC(=O)c2c[nH]c(=O)cc2C(F)(F)F)C[C@H](C)N1C [Example 61, N-(3-(2-(4,4-difluoropiperidin-1-yl)pyrimidin-5-yl)-2,4-difluoro-6-((3S,5R)-3,4,5-trimethylpiperazin-1-yl)phenyl)-6-oxo-4-(trifluoromethyl)-1,6-dihydropyridine-3-carboxamide]
Kd (WDR5 [1]): 1.26 nM
IC50 (WDR5 [2]): 11.7 nM
EC50 (MV4-11 cells): 22.9 nM

Compound: C[C@H]1CN(c2cc(F)c(C3=CCN(C(=O)OC4CC(F)(F)C4)CC3)c(F)c2NC(=O)c2c[nH]c(=O)cc2C(F)(F)F)CCN1C [Example 47, 3,3-Difluorocyclobutyl (S)-4-(4-(3,4-dimethylpiperazin-1-yl)-2,6-difluoro-3-(6-oxo-4-(trifluoromethyl)-1,6-dihydropyridine-3-carboxamido)phenyl)-3,6-dihydropyridine-1(2H)-carboxylate]
Kd (WDR5 [1]): 1.35 nM
IC50 (WDR5 [2]): 17.5 nM
EC50 (MV4-11 cells): 63 nM

Compound: C[C@@H]1CN(c2cc(F)c(-c3cnc(N4CCOCC4)nc3)c(F)c2NC(=O)c2c[nH]c(=O)cc2C(F)(F)F)C[C@H](C)N1C [Example 2, N-(2,4-difluoro-3-(2-morpholinopyrimidin-5-yl)-6-((3S,5R)-3,4,5-trimethylpiperazin-1-yl)phenyl)-6-oxo-4-(trifluoromethyl)-1,6-dihydropyridine-3-carboxamide]
Kd (WDR5 [1]): 3.68 nM
IC50 (WDR5 [2]): 16.3 nM
EC50 (MV4-11 cells): 30.1 nM

Compound: C[C@@H]1CN(c2cc(F)c(-c3cnc(N4CCOCC4)nc3)c(F)c2NC(=O)c2cn(C)c(=O)cc2C(F)F)C[C@H](C)N1C [Example 40, N-(2,4-difluoro-3-(2-morpholinopyrimidin-5-yl)-6-((3S,5R)-3,4,5-trimethylpiperazin-1-yl)phenyl)-4-(difluoromethyl)-1-methyl-6-oxo-1,6-dihydropyridine-3-carboxamide]
Kd (WDR5 [1]): 2.85 nM
IC50 (WDR5 [2]): 20.1 nM
EC50 (MV4-11 cells): 286 nM

Compound: C[C@@H]1CN(c2ncc(-c3c(F)cc(N4CCN(C)[C@@H](C)C4)c(NC(=O)c4ccc(F)cc4C(F)F)c3F)cn2)C[C@@H](C)O1 [Example 158, 2-(Difluoromethyl)-N-(3-(2-((2R,6R)-2,6-dimethylmorpholino)pyrimidin-5-yl)-6-((S)-3,4-dimethylpiperazin-1-yl)-2,4-difluorophenyl)-4-fluorobenzamide]
Kd (WDR5 [1]): 0.43 nM
IC50 (WDR5 [2]): 14 nM
EC50 (MV4-11 cells): 88.3 nM

Compound: C[C@H]1CN(c2ncc(-c3c(F)cc(N4CCN(C)[C@@H](C)C4)c(NC(=O)c4c[nH]c(=O)cc4C(F)F)c3F)cn2)C[C@H](C)O1 [Example 119, 4-(Difluoromethyl)-N-(3-(2-((2S,6S)-2,6-dimethylmorpholino)pyrimidin-5-yl)-6-((S)-3,4-dimethylpiperazin-1-yl)-2,4-difluorophenyl)-6-oxo-1,6-dihydropyridine-3-carboxamide]
Kd (WDR5 [1]): 0.9 nM
IC50 (WDR5 [2]): 11.7 nM
EC50 (MV4-11 cells): 20.4 nM

Compound: C[C@H]1CN(c2cc(F)c(-c3cnc(N4CC5CCC(C4)O5)nc3)c(F)c2NC(=O)c2c[nH]c(=O)cc2C(F)F)CCN1C [Example 155, (S)—N-(3-(2-(8-oxa-3-azabicyclo[3.2.1]octan-3-yl)pyrimidin-5-yl)-6-(3,4-dimethylpiperazin-1-yl)-2,4-difluorophenyl)-4-(difluoromethyl)-6-oxo-1,6-dihydropyridine-3-carboxamide-]
Kd (WDR5 [1]): 1.21 nM
IC50 (WDR5 [2]): 11.2 nM
EC50 (MV4-11 cells): 74 nM

Compound: C[C@H]1CN(c2cc(F)c(C3=CCCN(C(=O)OC4CC(F)(F)C4)C3)c(F)c2NC(=O)c2c[nH]c(=O)cc2C(F)F)CCN1C [Example 43, 3,3-Difluorocyclobutyl (S)-5-(3-(4-(difluoromethyl)-6-oxo-1,6-dihydropyridine-3-carboxamido)-4-(3,4-dimethylpiperazin-1-yl)-2,6-difluorophenyl)-3,6-dihydropyridine-1(2H)-carboxylate]
Kd (WDR5 [1]): 1.7 nM
IC50 (WDR5 [2]): 15.9 nM
EC50 (MV4-11 cells): 653 nM

Further lines, results first:

Kd (WDR5 [1]): 2.4 nM
IC50 (WDR5 [2]): 15 nM
EC50 (MV4-11 cells): 35 nM
Compound: C[C@H]1CN(c2cc(F)c(C3=CCN(c4ccnc(C#N)n4)CC3)c(F)c2NC(=O)c2c[nH]c(=O)cc2C(F)(F)F)CCN1C [Example 112, (S)—N-(3-(1-(2-cyanopyrimidin-4-yl)-1,2,3,6-tetrahydropyridin-4-yl)-6-(3,4-dimethylpiperazin-1-yl)-2,4-difluorophenyl)-6-oxo-4-(trifluoromethyl)-1,6-dihydropyridine-3-carboxamide]

Kd (WDR5 [1]): 1.1 nM
IC50 (WDR5 [2]): 17 nM
EC50 (MV4-11 cells): 111 nM
Compound: COc1cnc(N2CC=C(c3c(F)cc(N4CCN(C)[C@@H](C)C4)c(NC(=O)c4c[nH]c(=O)cc4C(F)(F)F)c3F)C2)nc1 [Example 51, (S)—N-(6-(3,4-dimethylpiperazin-1-yl)-2,4-difluoro-3-(1-(5-methoxypyrimidin-2-yl)-2,5-dihydro-1H-pyrrol-3-yl)phenyl)-6-oxo-4-(trifluoromethyl)-1,6-dihydropyridine-3-carboxamide]

Kd (WDR5 [1]): 2.24 nM
IC50 (WDR5 [2]): 16.2 nM
EC50 (MV4-11 cells): 108 nM
Compound: CC(C)OC(=O)N1CC=C(c2c(F)cc(N3CCN(C)[C@@H](C)C3)c(NC(=O)c3c[nH]c(=O)cc3C(F)(F)F)c2F)C1 [Example 37, Isopropyl (S)-3-(4-(3,4-dimethylpiperazin-1-yl)-2,6-difluoro-3-(6-oxo-4-(trifluoromethyl)-1,6-dihydropyridine-3-carboxamido)phenyl)-2,5-dihydro-1H-pyrrole-1-carboxylate]

Kd (WDR5 [1]): 1.25 nM
IC50 (WDR5 [2]): 15.1 nM
EC50 (MV4-11 cells): 99.1 nM
Compound: C[C@@H]1CN(c2nccc(-c3c(F)cc(N4CCN(C)[C@@H](C)C4)c(NC(=O)c4c[nH]c(=O)cc4C(F)(F)F)c3F)n2)C[C@H](C)O1 [Example 58, N-(3-(2-((2S,6R)-2,6-dimethylmorpholino)pyrimidin-4-yl)-6-((S)-3,4-dimethylpiperazin-1-yl)-2,4-difluorophenyl)-6-oxo-4-(trifluoromethyl)-1,6-dihydropyridine-3-carboxamide]

Kd (WDR5 [1]): 1.45 nM
IC50 (WDR5 [2]): 11.9 nM
EC50 (MV4-11 cells): 181 nM
Compound: C[C@H]1CN(c2cc(F)c(C3=CCCN(c4ncc(C#N)s4)C3)c(F)c2NC(=O)c2c[nH]c(=O)cc2C(F)(F)F)CCN1C [Example 100, (S)—N-(3-(1-(5-cyanothiazol-2-yl)-1,2,5,6-tetrahydropyridin-3-yl)-6-(3,4-dimethylpiperazin-1-yl)-2,4-difluorophenyl)-6-oxo-4-(trifluoromethyl)-1,6-dihydropyridine-3-carboxamide]

Kd (WDR5 [1]): 1.55 nM
IC50 (WDR5 [2]): 16 nM
EC50 (MV4-11 cells): 38.3 nM
Compound: C[C@H]1CN(c2cc(F)c(C3=CCN(c4ncc(F)cn4)C3)c(F)c2NC(=O)c2c[nH]c(=O)cc2C(F)F)CCN1C [Example 91, (S)-4-(difluoromethyl)-N-(6-(3,4-dimethylpiperazin-1-yl)-2,4-difluoro-3-(1-(5-fluoropyrimidin-2-yl)-2,5-dihydro-1H-pyrrol-3-yl)phenyl)-6-oxo-1,6-dihydropyridine-3-carboxamide]
